Measurements: publication PMC2605271 (Journal of clinical neuroscience : official journal of the …, 2008)
pEC50: −log10 of the molar value. Entries after “also recorded” stand apart in the source; their conditions may differ.

Legend:
[1] = molecular target: T1, serotonin transporter (SERT) (Homo sapiens, UniProt P31645)
[2] = molecular target: T1, serotonin transporter (SERT); test: cell-based
[3] = molecular target: norepinephrine transporter (NET) (Homo sapiens, UniProt P23975); details: 10^−7 M to 10^−3 M, 30 minutes, HEK-hNET cells
NET protein expression = test: Immunoblotting of NET protein expression in HEK-hNET cells; type: cell-based, human; details: 10^−6 M, 24 hours

T1 sequence (P31645 whole entry): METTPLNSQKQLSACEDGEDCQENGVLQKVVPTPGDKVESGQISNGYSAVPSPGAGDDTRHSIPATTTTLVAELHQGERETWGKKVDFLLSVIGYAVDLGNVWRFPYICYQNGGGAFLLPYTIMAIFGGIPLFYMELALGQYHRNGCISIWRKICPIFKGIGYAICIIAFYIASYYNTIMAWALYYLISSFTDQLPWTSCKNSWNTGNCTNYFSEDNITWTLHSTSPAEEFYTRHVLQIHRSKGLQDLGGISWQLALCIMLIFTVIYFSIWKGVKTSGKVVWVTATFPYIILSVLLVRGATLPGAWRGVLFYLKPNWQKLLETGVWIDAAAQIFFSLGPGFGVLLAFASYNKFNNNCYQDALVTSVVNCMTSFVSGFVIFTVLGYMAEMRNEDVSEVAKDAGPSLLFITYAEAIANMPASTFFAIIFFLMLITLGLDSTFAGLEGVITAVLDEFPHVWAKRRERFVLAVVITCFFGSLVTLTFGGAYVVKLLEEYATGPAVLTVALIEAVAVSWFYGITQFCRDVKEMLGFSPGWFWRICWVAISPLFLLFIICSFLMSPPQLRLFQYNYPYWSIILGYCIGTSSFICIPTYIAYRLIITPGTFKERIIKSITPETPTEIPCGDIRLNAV
Sequence of norepinephrine transporter (NET) (P23975 whole entry): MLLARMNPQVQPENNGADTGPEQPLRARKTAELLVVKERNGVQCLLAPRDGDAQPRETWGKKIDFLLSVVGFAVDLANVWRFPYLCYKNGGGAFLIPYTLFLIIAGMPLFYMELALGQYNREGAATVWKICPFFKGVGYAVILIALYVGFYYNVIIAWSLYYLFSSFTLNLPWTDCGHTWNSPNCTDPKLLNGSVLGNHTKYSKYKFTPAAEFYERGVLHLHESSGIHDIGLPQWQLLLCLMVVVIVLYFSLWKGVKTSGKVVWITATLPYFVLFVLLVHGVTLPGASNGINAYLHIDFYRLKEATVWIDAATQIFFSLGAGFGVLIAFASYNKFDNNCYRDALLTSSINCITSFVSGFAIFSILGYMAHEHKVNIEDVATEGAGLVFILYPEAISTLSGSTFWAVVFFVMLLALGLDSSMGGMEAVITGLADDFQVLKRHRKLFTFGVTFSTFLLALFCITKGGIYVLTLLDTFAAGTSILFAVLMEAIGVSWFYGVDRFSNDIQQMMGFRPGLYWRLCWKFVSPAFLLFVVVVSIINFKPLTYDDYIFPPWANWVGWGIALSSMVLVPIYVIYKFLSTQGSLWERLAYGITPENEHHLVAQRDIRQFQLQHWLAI

| SMILES | Effect on SERT function ([3H]-5-HT uptake) [1] | pEC50 [2] | Effect on NET function ([3H]-NE uptake) [3] | Change in NET protein expression in response to chronic desipramine treatment (NET protein expression) |
| --- | --- | --- | --- | --- |
| CCCC(C)C1(CC)C(=O)NC(=S)NC1=O (stereo not shown) [Thiopental, thiopental] | failed to have any effect; also recorded: no effect | < 1.30 | failed to have any effect; also recorded: no effect; also recorded: No evidence of inhibition | – |
| CNCCCN1c2ccccc2CCc2ccccc21 [desipramine] | – | – | – | no changes |
